Measurements from PMC10590419, “Structural and mechanistic insights into the inhibition of respiratory syncytial virus polymerase by a non-nucleoside inhibitor” (Communications Biology, 2023).
Where “and” joins values, the source holds several entries; their conditions need not be identical. Identical values can stand only once.

What was measured:
[1] = biological target: T1, RSV L+P complex (Human respiratory syncytial virus A, UniProt P28887); assay type: biochemical
[2] = biological target: RSV MTase-CTD protein (Human respiratory syncytial virus A, UniProt P28887); experiment: Methyltransferase filter-binding assay; assay type: biochemical; conditions: three technical replicates
Chain of RSV MTase-CTD protein (P28887 1755-2165): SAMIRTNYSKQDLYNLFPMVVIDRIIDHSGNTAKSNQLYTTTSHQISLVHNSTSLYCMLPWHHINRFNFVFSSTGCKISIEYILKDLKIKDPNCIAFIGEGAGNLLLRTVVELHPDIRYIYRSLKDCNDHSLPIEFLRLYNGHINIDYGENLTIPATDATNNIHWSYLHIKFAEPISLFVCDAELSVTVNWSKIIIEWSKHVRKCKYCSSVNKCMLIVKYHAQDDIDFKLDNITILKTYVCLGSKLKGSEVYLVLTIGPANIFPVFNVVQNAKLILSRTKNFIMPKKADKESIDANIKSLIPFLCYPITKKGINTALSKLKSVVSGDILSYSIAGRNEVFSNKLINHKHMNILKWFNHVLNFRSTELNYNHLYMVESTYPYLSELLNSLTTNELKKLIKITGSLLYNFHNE

[3] = biological target: T1, RSV L+P complex; experiment: Surface plasmon resonance assay; assay type: binding, Human RSV (strain A2); conditions: SPR, top concentration 1 mM

T1 sequence (P03421 whole entry): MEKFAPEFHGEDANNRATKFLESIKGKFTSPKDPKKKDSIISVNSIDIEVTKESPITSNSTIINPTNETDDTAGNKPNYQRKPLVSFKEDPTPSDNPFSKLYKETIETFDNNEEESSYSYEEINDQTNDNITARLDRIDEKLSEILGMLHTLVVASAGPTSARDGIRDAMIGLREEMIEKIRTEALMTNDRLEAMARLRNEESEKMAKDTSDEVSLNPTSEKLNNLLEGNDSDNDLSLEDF
T1 sequence (P28887 whole entry): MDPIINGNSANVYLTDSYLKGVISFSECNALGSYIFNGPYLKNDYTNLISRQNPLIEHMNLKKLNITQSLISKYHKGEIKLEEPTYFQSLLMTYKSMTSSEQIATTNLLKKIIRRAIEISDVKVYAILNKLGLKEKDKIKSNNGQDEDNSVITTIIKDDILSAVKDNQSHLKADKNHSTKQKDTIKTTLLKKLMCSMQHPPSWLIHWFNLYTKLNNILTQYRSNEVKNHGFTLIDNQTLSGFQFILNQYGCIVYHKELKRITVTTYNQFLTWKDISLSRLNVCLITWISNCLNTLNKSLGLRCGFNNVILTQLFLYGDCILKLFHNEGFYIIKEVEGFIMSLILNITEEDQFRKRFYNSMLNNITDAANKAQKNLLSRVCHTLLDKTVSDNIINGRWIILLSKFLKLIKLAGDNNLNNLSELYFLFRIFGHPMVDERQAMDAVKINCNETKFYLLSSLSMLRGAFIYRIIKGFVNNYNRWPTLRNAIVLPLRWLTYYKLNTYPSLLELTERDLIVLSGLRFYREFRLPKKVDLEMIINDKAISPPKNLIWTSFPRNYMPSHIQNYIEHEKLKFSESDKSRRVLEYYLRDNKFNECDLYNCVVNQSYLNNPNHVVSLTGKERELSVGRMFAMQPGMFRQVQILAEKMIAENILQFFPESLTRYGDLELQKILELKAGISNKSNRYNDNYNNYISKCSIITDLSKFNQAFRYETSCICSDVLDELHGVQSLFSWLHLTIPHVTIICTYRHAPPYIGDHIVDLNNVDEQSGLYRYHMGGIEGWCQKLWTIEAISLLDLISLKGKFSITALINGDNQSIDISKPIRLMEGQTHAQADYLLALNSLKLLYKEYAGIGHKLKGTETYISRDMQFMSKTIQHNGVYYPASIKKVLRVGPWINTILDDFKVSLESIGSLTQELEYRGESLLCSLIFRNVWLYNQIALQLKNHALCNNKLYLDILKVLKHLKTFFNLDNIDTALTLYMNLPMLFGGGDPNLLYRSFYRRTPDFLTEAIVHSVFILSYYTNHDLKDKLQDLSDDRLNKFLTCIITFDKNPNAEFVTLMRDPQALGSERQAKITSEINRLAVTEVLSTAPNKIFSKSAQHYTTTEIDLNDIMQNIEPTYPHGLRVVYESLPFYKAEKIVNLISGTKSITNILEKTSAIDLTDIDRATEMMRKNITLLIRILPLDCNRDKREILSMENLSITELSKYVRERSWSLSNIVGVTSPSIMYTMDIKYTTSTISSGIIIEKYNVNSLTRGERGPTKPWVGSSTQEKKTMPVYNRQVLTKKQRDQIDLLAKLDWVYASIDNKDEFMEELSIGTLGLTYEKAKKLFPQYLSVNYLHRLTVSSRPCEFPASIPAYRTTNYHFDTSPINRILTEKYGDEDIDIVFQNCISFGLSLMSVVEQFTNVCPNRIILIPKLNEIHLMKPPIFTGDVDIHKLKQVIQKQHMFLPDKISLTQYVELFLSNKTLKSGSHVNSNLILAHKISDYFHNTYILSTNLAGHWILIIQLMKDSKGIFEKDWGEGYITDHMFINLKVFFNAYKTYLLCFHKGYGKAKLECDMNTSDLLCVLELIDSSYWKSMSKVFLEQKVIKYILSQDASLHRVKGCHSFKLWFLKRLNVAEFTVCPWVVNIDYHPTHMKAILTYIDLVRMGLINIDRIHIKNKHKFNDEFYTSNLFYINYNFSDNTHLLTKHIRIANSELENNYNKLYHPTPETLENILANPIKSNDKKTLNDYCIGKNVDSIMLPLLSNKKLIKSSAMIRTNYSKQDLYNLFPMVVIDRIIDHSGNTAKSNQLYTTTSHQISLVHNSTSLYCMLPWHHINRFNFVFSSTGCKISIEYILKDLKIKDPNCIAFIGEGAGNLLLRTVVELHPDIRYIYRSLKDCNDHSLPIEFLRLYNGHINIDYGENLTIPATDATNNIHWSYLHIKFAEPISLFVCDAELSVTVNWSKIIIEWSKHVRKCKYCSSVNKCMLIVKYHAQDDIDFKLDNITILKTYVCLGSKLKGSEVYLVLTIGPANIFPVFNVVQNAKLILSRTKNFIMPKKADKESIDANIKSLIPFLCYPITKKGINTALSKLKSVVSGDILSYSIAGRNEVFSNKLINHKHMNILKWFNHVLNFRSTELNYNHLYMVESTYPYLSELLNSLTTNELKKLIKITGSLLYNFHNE

O=C(NC1CC1)c1cc2c(s1)-c1ccccc1N(C(=O)c1ccc(NC(=O)c3cccnc3N3CCC4(CC3)COC4)cc1)CC2 [AZ-27, reference compound]
MTase activity, RNA+compound+RSV L+P, CPM [1]: 10786 CPM and 11483 CPM and 10556 CPM and 15234 CPM and 15171 CPM and 17548 CPM
MTase activity, RNA+compound+RSV MTase-CTD, CPM ([2]; 50 uM): 28343 CPM and 26589 CPM and 27119 CPM
MTase activity, RNA+compound+RSV MTase-CTD, CPM ([2]; 200 uM): 32944 CPM and 32511 CPM and 35155 CPM

Nc1nc2c(ncn2[C@@H]2O[C@H](COP(=O)(O)OP(=O)(O)O)[C@@H](O)[C@H]2O)c(=O)[nH]1 [GDP, guanosine diphosphate]
binding to purified RSV L+P (in words) [3]: did not bind
